Here are results for three compounds from patent US20220175793A1, “THE USE OF AN MGLUR5 ANTAGONIST FOR TREATING OPIOID ANALGESIC TOLERANCE” (NOVARTIS AG, priority 2019, published 2022).

This experiment deals with morphine tolerant mice. Put plainly: Opiate tolerance test (hot plate) in the mouse. It is filed as in vivo. The following applies: for foot-licking latency, change as compared with animals receiving morphine from Day 1 to Day 6: morphine 32 mg/kg i.p. twice daily Day 1 to Day 6, hot plate 54° C. The protocol: The method, which detects tolerance to analgesic activity, follows that described by Fernandes et al (Naunyn-Schmiedeberg's Arch. Pharmacol., 297, 53-60, 1977).
Mice were placed onto a hot metal plate maintained at 54° C. surrounded by a Plexiglas cylinder (height: 13 cm; diameter: 19 cm) (Bioseb: model PE34). The latency to the first foot-lick was measured (maximum: 30 seconds). Morphine (32 mg/kg i.p.) or vehicle were administered twice daily for 6 days (at about 9:00 and 15:00), and then administered with morphine 8 mg/kg i.p. (or saline) 30 minutes before the test on Day 7 to assess morphine tolerance.
The test substances were each evaluated at 3 doses (1, 3 and 10 mg/kg for Compound (I) and 0.3, 1 and 3 mg/kg for Compound (II), administered in morphine tolerant mice p.o. acutely 60 minutes before the test on Day 7. The experiment included appropriate control groups to assess the potential effects of the test substances on morphine tolerance. Compound (III) was evaluated at 1 dose (10 mg/kg), administered under the same experimental conditions and was used as comparison substance.
10 mice were studied per group. The test was performed blind. Data were analysed by comparing treated groups with appropriate controls using unpaired Student's t tests.

The mark [1] stands for this setting: 1 mg/kg p.o. acutely 60 minutes before the test on Day 7.
Setting [2] is: 3 mg/kg p.o. acutely 60 minutes before the test on Day 7.
[3] abbreviates: 10 mg/kg p.o. acutely 60 minutes before the test on Day 7.

`COC(=O)N1CC[C@@H]2[C@H]1CCC[C@@]2(O)C#Cc1cccc(C)c1` [Compound (I), (−)-(3aR,4S,7aR)-4-Hydroxy-4-m-tolylethynyl-octahydro-indole-1-carboxylic acid methyl ester]: the “expression of morphine tolerance (conclusion)” value (shortened to “expression”) (1 mg/kg p.o. acutely) is on record as “significantly decrease the expression of morphine tolerance”. Besides, the “foot-licking latency, change as compared with animals receiving morphine from Day 1 to Day 6” value (from here on “foot-licking latency, change”) reads like this: under setting [1], “+44%”; under setting [2], “no significant effects”; under setting [3], “no significant effects”.

Consider `COCc1cn(C2=NCC(=O)N3CCc4c(ccc(F)c4C4CC4)C3=C2)cn1` [Compound (II), 9-cyclopropyl-10-fluoro-2-(4-(methoxymethyl)-1H-imidazol-1-yl)-7,8-dihydro-[1,4]diazepino[7,1-a]isoquinolin-5(4H)-one], for which the “foot-licking latency, change” value by setting is: (0.3 mg/kg p.o. acutely 60 minutes before the test on Day 7) “no effects”; under setting [1], “+37%”; under setting [2], “+38%”. Further, under “3 mg/kg p.o. acutely”, the “expression” value is “significantly decrease the expression of morphine tolerance”.

For the compound `Cc1cccc(C#Cc2ccccc2)n1` [Compound (III), 2-methyl-6-(phenylethynyl)pyridine, reference compound], the “expression” value (10 mg/kg p.o. acutely) is listed as “significantly decrease the expression of morphine tolerance”. Moreover, under setting [3], the “foot-licking latency, change” value is listed as “+32%”.
